Source: patent US20260042755A1, “GPR6 INVERSE AGONISTS” (MapLight Therapeutics, Inc., priority 2022, published 2026)
Blank lines part the entries; values can stand above or below the compound they belong to.

Tests used:
GPR3 = molecular target: T1, GPR3 (Homo sapiens, UniProt P46089); test: GPR3 antagonist functional cAMP assay (LANCE Ultra cAMP TR-FRET, CHO cells stably expressing GPR3); type: cell-based
T1 construct: expressed in transfected cells; host or cells: CHO cells
Description: (§1) Example 56. GPR6 and GPR3 Antagonist Functional cAMP Assay
(§2) CHO cells stably expressing GPR6 or GPR3 receptors were dissociated from cell culture flasks and incubated for 2 h at 37° C. in a 10 cm dish in a humidified incubator. Cells were dissociated, counted to have 1e6 cells/mL (4.5e6 cells needed/384-well plate), washed once in starved media, than in D-PBS and finally suspended in assay buffer (Krebs-Ringer Bicarbonate Buffer with 1800 mg/L glucose, without calcium chloride and sodium bicarbonate (Sigma) in the presence of 0.1% BSA and 150 μM of Ro 20-1724 Phosphodiesterase inhibitor).
(§3) Cells in suspension from above were plated in 384-well white Optiplate (PerkinElmer) at 10,000 cells/well/10 μl, briefly centrifuged prior direct addition of compounds ([…]) in 10 mM DMSO using a Tecan D300e Digital Dispenser, final DMSO in each well was normalized to 0.1%. Cells were incubated in the presence of compounds for 45 min at 37° C. in a humidified incubator.
(§4) To measure cAMP levels, LANCE® Ultra cAMP assay (Perkin Elmer), a homogeneous time-resolved fluorescence resonance energy transfer (TR-FRET) immunoassay was used following manufacturer's recommendations. Plates were shaken for 1 h at room temperature before reading on a Tecan InfiniteF200Pro multi-mode plate reader using standard FRET settings (Excitation 340 nm, Emission at 615 nm). FRET values were reported as readings obtained at 665 nm. Data were normalized to DMSO (0.1%) and reference compounds (100%) and fit to a 4-parameter logistical fit to generate antagonist IC50s.

GPR6 = molecular target: T2, GPR6 (Homo sapiens, UniProt P46095); test: GPR6 antagonist functional cAMP assay (LANCE Ultra cAMP TR-FRET, CHO cells stably expressing GPR6); type: cell-based
T2 construct: expressed in transfected cells; host or cells: CHO cells
Description: as §1, §2, §3, §4

[1] = CHO cells stably expressing GPR3, cAMP assay (Example 24)
[2] = CHO cells stably expressing GPR6, cAMP assay (Example 24)
[3] = CHO cells stably expressing GPR3, cAMP assay
[4] = CHO cells stably expressing GPR6, cAMP assay
[5] = procedure as described in Example 24

T2 sequence (P46095 whole entry): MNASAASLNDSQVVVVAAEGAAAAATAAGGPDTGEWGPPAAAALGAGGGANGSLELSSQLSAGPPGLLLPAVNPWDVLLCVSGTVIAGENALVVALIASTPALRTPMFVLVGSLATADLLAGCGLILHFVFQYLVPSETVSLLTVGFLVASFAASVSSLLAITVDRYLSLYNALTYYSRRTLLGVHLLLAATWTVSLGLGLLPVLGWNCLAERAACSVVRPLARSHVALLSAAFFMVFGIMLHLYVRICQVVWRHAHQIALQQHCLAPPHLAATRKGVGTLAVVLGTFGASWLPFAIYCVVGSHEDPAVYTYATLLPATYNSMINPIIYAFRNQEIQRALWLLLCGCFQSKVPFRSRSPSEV
T1 sequence (P46089 whole entry, species assumed): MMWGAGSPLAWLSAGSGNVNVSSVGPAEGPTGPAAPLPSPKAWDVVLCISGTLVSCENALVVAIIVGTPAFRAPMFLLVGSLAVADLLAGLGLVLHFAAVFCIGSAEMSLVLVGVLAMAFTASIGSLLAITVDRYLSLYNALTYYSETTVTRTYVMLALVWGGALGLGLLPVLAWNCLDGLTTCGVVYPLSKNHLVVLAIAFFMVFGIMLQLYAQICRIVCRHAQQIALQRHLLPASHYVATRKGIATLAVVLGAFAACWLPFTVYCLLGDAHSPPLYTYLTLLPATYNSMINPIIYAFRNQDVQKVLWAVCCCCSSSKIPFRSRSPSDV

SMILES: CC(=O)N1CCc2nc(N3CCC(Oc4ccc(F)cc4F)CC3)c(-c3cnn(CC(C)C)c3)nc2C1 [Compound 195, 1-{2-[4-(2,4-difluorophenoxy)piperidin-1-yl]-3-[1-(2-methylpropyl)-1H-pyrazol-4-yl]-5H,6H,7H,8H-pyrido[3,4-b]pyrazin-6-yl}ethan-1-one]
IC50 (GPR3; [1]): 1000 to 30000 nM
IC50 (GPR6; [2]): 100 to 1000 nM

SMILES: CNC(=O)CN1CCc2nc(N3CCC(Oc4ccc(F)cc4F)CC3)c(-c3cnn(C4CCCCO4)c3)nc2C1 (stereo not drawn) [Compound 144, 2-{2-[4-(2,4-difluorophenoxy)piperidin-1-yl]-3-[1-(oxan-2-yl)-1H-pyrazol-4-yl]-5H,6H,7H,8H-pyrido[3,4-b]pyrazin-6-yl}-N-methylacetamide]
IC50 (GPR3; [1]): 1000 to 30000 nM
IC50 (GPR6; [2]): 1000 to 30000 nM

SMILES: COC1CCCC(c2nc3c(nc2N2CCC(Oc4ccc(F)cc4F)CC2)CCN(C(C)=O)C3)C1 (stereo not drawn) [Compound 248, 1-{2-[4-(2,4-difluorophenoxy)piperidin-1-yl]-3-(3-methoxycyclohexyl)-5H,6H,7H,8H-pyrido[3,4-b]pyrazin-6-yl}ethan-1-one]
IC50 (GPR3; [1]): 1000 to 30000 nM
IC50 (GPR6; [2]): 1000 to 30000 nM

SMILES: Cn1cc(-c2nc3cnc(C(O)C4CC4)cc3nc2N2CCC(Oc3ccc(F)cc3F)CC2)cn1 (stereo not drawn) [Compound 250, cyclopropyl(2-(4-(2,4-difluorophenoxy)piperidin-1-yl)-3-(1-methyl-1H-pyrazol-4-yl)pyrido[3,4-b]pyrazin-7-yl)methanol]
IC50 (GPR3; [1]): 1000 to 30000 nM
IC50 (GPR6; [2]): 1000 to 30000 nM

SMILES: Cn1cc(-c2nc3cnccc3nc2N2CCN(CC3CCCCO3)CC2)cn1 (stereo not drawn) [Compound 246, 1-[3-(1-methyl-1H-pyrazol-4-yl)pyrido[3,4-b]pyrazin-2-yl]-4-[(oxan-2-yl)methyl]piperazine]
IC50 (GPR3; [1]): ≥ 30000 nM
IC50 (GPR6; [2]): ≥ 30000 nM

SMILES: C=CC(=O)N1CCc2nc(N3CCC(Oc4ccc(F)cc4F)CC3)c(-c3cnn(C4CCCCO4)c3)nc2C1 (stereo not drawn) [Compound 185, 1-{2-[4-(2,4-difluorophenoxy)piperidin-1-yl]-3-[1-(oxan-2-yl)-1H-pyrazol-4-yl]-5H,6H,7H,8H-pyrido[3,4-b]pyrazin-6-yl}prop-2-en-1-one]
IC50 (GPR3; [1]): 1000 to 30000 nM
IC50 (GPR6; [2]): 100 to 1000 nM

SMILES: COc1ccc(-c2nc3c(nc2N2CCC(Oc4ccc(F)cc4F)CC2)CCN(C(C)=O)C3)nc1 [Compound 10]
IC50 (GPR3; [5]): 1000 to 30000 nM
IC50 (GPR6; [5]): 100 to 1000 nM

SMILES: Fc1ccc(OC2CCN(c3nc4c(nc3-c3cn[nH]c3)CNCC4)CC2)c(F)c1 [Compound 124, 4-(2,4-difluorophenoxy)-1-[3-(1H-pyrazol-4-yl)-5H,6H,7H,8H-pyrido[3,4-b]pyrazin-2-yl]piperidine]
IC50 (GPR3; [1]): 1000 to 30000 nM
IC50 (GPR6; [2]): 1000 to 30000 nM

SMILES: CC(=O)N1CCc2nc(N3CCC(Oc4ccc(F)cc4F)CC3)c(C3CCC(O)CC3)nc2C1 (stereo not drawn) [Compound 374, 1-(2-(4-(2,4-difluorophenoxy)piperidin-1-yl)-3-(4-hydroxycyclohexyl)-7,8-dihydropyrido[3,4-b]pyrazin-6(5H)-yl)ethan-1-one]
IC50 (GPR3; procedure of Example 24): 1000 to 30000 nM
IC50 (GPR6; procedure of Example 24): 1000 to 30000 nM

SMILES: CC(=O)N1CCc2nc(N3CCC(Oc4ccc(F)cc4F)CC3)c(-c3cnn(C4CS(=O)(=O)C4)c3)nc2C1 [Compound 82, 3-(4-{6-acetyl-2-[4-(2,4-difluorophenoxy)piperidin-1-yl]-5H,6H,7H,8H-pyrido[3,4-b]pyrazin-3-yl}-1H-pyrazol-1-yl)-1λ^6-thietane-1,1-dione]
IC50 (GPR3; [1]): 1000 to 30000 nM
IC50 (GPR6; [2]): 1000 to 30000 nM

SMILES: CC(=O)N1CCc2nc(N3CCC(Oc4ccc(F)cc4F)CC3)c(-c3cnn(C(C)C)c3)nc2C1 [Compound 165, 1-{2-[4-(2,4-difluorophenoxy)piperidin-1-yl]-3-[1-(propan-2-yl)-1H-pyrazol-4-yl]-5H,6H,7H,8H-pyrido[3,4-b]pyrazin-6-yl}ethan-1-one]
IC50 (GPR3; [1]): 1000 to 30000 nM
IC50 (GPR6; [2]): < 100 nM

Continued, values first:

IC50 (GPR3; procedure of Example 24): 100 to 1000 nM
IC50 (GPR6; procedure of Example 24): 100 to 1000 nM
SMILES: Cn1cc(-c2nc3cc([C@@](C)(O)C(C)(C)O)ncc3nc2N2CCN(Cc3ccc(F)cc3F)CC2)cn1 (single isomer, unassigned) [Compound 772]

IC50 (GPR3; [3]): ≥ 30000 nM
IC50 (GPR6; [4]): 100 to 1000 nM
SMILES: CC(=O)N1CCc2nc(N3CCC(Oc4ccccc4C#N)CC3)c(-c3cnn(C)c3)nc2C1 [Compound 499, o-{1-[6-acetyl-3-(1-methyl-4-pyrazolyl)-5,6,7,8-tetrahydro-1,4,6-triaza-2-naphthyl]-4-piperidyloxy} benzonitrile]

IC50 (GPR3; [3]): 1000 to 30000 nM
IC50 (GPR6; [4]): 1000 to 30000 nM
SMILES: COc1ccc(OC2CCN(c3nc4c(nc3-c3cnn(C)c3)CN(C(C)=O)CC4)CC2)cn1 [Compound 498, 1-{2-[4-(6-methoxy-3-pyridyloxy)-1-piperidyl]-3-(1-methyl-4-pyrazolyl)-5,6,7,8-tetrahydro-1,4,6-triaza-6-naphthyl}-1-ethanone]

IC50 (GPR3; procedure of Example 24): 1000 to 30000 nM
IC50 (GPR6; procedure of Example 24): 100 to 1000 nM
SMILES: Cn1cc(-c2nc3cnc([C@H](O)C(C)(C)F)cc3nc2N2CCC(Oc3ccc(F)cc3F)CC2)cn1 (single isomer, unassigned) [Compound 743]

IC50 (GPR3; [3]): ≥ 30000 nM
IC50 (GPR6; [4]): ≥ 30000 nM
SMILES: CC(=O)N1CCc2nc(N3CCN(Cc4c[nH]cn4)CC3)c(-c3cnn(C)c3)nc2C1 [Compound 548, 1-(2-{4-[(4-imidazolyl)methyl]-1-piperazinyl}-3-(1-methyl-4-pyrazolyl)-5,6,7,8-tetrahydro-1,4,6-triaza-6-naphthyl)-1-ethanone]

IC50 (GPR3; [3]): 1000 to 30000 nM
IC50 (GPR6; [4]): 100 to 1000 nM
SMILES: COCC(C)(O)c1cc2nc(N3CCC(Oc4ccc(F)cc4F)CC3)c(-c3cnn(C)c3)nc2cn1 (stereo not drawn) [Compound 567, 2-{2-[4-(2,4-difluorophenoxy)-1-piperidyl]-3-(1-methyl-4-pyrazolyl)-1,4,6-triaza-7-naphthyl}-1-methoxy-2-propanol]

IC50 (GPR3; procedure of Example 24): 100 to 1000 nM
IC50 (GPR6; procedure of Example 24): 100 to 1000 nM
SMILES: CC(C)(O)C(O)c1cc2nc(N3CCN(Cc4ccc(F)cc4F)CC3)c(-c3ccc(F)c(N)n3)nc2cn1 (stereo not drawn) [Compound 791, 1-[3-(6-amino-5-fluoro-2-pyridyl)-2-{4-[(2,4-difluorophenyl)methyl]-1-piperazinyl}-1,4,6-triaza-7-naphthyl]-2-methyl-1,2-propanediol]

IC50 (GPR3; procedure of Example 24): 1000 to 30000 nM
IC50 (GPR6; procedure of Example 24): 100 to 1000 nM
SMILES: CC(C)(O)Cc1cc2nc(-c3cnn(C4CC4)c3)c(N3CCC(Oc4ccc(F)cc4F)CC3)nc2cn1 [Compound 704, 1-{2-(1-cyclopropyl-4-pyrazolyl)-3-[4-(2,4-difluorophenoxy)-1-piperidyl]-1,4,6-triaza-7-naphthyl}-2-methyl-2-propanol]

IC50 (GPR3; [3]): 1000 to 30000 nM
IC50 (GPR6; [4]): 100 to 1000 nM
SMILES: Cn1cc(-c2nc3cnc(C(C)(O)CO)cc3nc2N2CCC(Oc3ccc(F)cc3F)CC2)cn1 (stereo not drawn) [Compound 556, 2-{2-[4-(2,4-difluorophenoxy)-1-piperidyl]-3-(1-methyl-4-pyrazolyl)-1,4,6-triaza-7-naphthyl}-1,2-propanediol]

IC50 (GPR3; [3]): 1000 to 30000 nM
IC50 (GPR6; [4]): < 100 nM
SMILES: CC(=O)N1CCc2nc(N3CCN(Cc4cc(Cl)ccc4Cl)CC3)c(-c3ccc(F)c(N)n3)nc2C1 [Compound 580, 1-[3-(6-amino-5-fluoro-2-pyridyl)-2-{4-[(2,5-dichlorophenyl)methyl]-1-piperazinyl}-5,6,7,8-tetrahydro-1,4,6-triaza-6-naphthyl]-1-ethanone]

IC50 (GPR3; [1]): 1000 to 30000 nM
IC50 (GPR6; [2]): 100 to 1000 nM
SMILES: CCn1cc(-c2nc3c(nc2N2CCC(Oc4cc(Cl)ccc4Cl)CC2)CCN(C(C)=O)C3)cn1 [Compound 400, 1-{2-[4-(2,5-dichlorophenoxy)piperidin-1-yl]-3-(1-ethyl-1H-pyrazol-4-yl)-5H,6H,7H,8H-pyrido[3,4-b]pyrazin-6-yl}ethan-1-one]

IC50 (GPR3; [3]): 1000 to 30000 nM
IC50 (GPR6; [4]): 100 to 1000 nM
SMILES: Cn1cc(-c2nc3cnc([C@@H](O)C(C)(C)O)cc3nc2N2CCN(Cc3ccc(F)cc3F)CC2)cn1 (single isomer, unassigned) [Compound 578]

IC50 (GPR3; procedure of Example 24): 1000 to 30000 nM
IC50 (GPR6; procedure of Example 24): < 100 nM
SMILES: N#CN1CCc2nc(N3CCC(Oc4ccc(F)cc4F)CC3)c(-c3ccc(F)c(N)n3)nc2C1 [Compound 671, 6-{6-cyano-2-[4-(2,4-difluorophenoxy)-1-piperidyl]-5,6,7,8-tetrahydro-1,4,6-triaza-3-naphthyl}-3-fluoro-2-pyridylamine]

IC50 (GPR3; [3]): 1000 to 30000 nM
IC50 (GPR6; [4]): 100 to 1000 nM
SMILES: CCn1cc(-c2nc3c(nc2N2CCC(Oc4ccc(F)cc4F)CC2)CCN(C(=O)C2COCCN2C)C3)cn1 (stereo not drawn) [Compound 492, 3-{2-[4-(2,4-difluorophenoxy)piperidin-1-yl]-3-(1-ethyl-1H-pyrazol-4-yl)-5H,6H,7H,8H-pyrido[3,4-b]pyrazine-6-carbonyl}-4-methylmorpholine]

IC50 (GPR3; procedure of Example 24): 1000 to 30000 nM
IC50 (GPR6; procedure of Example 24): 100 to 1000 nM
SMILES: CC(C)(O)[C@H](O)c1cc2nc(N3CCN(Cc4ccccc4F)CC3)c(-c3cnn(CF)c3)nc2cn1 (single isomer, unassigned) [Compound 648]

IC50 (GPR3; procedure of Example 24): 1000 to 30000 nM
IC50 (GPR6; procedure of Example 24): 100 to 1000 nM
SMILES: CC(C)(O)C(=O)c1cc2nc(N3CCN(Cc4ccc(F)cc4F)CC3)c(-c3cnn(C4CC4)c3)nc2cn1 [Compound 619, 1-[3-(1-cyclopropyl-4-pyrazolyl)-2-{4-[(2,4-difluorophenyl)methyl]-1-piperazinyl}-1,4,6-triaza-7-naphthyl]-2-hydroxy-2-methyl-1-propanone]
